Residues, ends and D or L forms follow the SMILES beside them. *: point of attachment. Cbz = O=C(OCc1ccccc1)*
Biological target: T1, Purified proteasomes (Homo sapiens, UniProt P28074)
T1 construct: using this protocol active proteasomes are efficiently isolated from cells; endogenous in cells; immunoprecipitated with anti-α6 antibodies
Experiment: Proteasome activity-based assay with fluorogenic Suc-LLVY-Amc substrate
Format: biochemical
Conditions: fluorescent LLVY peptide substrate; FIG. 2
Protocol: Proteasome Activity-Based Assay.
Purified proteasomes were incubated with the fluorogenic substrate peptide Suc-LLVY-Amc (100 μM) in a reaction mixture containing 50 mM Hepes, pH 7.5, 1 mM DTT, 5 mM MgCl2, and 2 mM ATP. fluorescence of cleaved Amc was measured (excitation, 360 nm; emission, 470 nm).
A unique system of ‘Proteasomal Profiling’ was developed for the isolation of the active-degradome from the cell by purifying the proteasomal peptide pool, which represents proteins actively undergoing degradation at the time of experiment (FIG. 1). Proteasomal complexes were purified by immunoprecipitation using specific antibodies against the α6 subunit of the 20S core particle. To examine whether the catalytic activity of the proteasomes is retained during the purification procedures, an activity-based assay was performed using a fluorescent LLVY peptide substrate.

CC(C)C[C@@H](C=O)NC(=O)[C@H](CC(C)C)NC(=O)[C@H](CC(C)C)NC(=O)OCc1ccccc1 [MG132] (Cbz-Leu-Leu-Leu-aldehyde)
degradation of the LLVY substrate by purified proteasomes: sensitive

— patent US11035858B2, “Methods of isolating barrel-like proteases and identifying peptides processed thereby” (Yeda Research and Development Co. Ltd., priority 2016, dated 2021)
